Source: patent US8507445B2, “Compositions and methods of use of targeting peptides for diagnosis and therapy of human cancer” (Board of Regents, The University of Texas System, priority 2002, dated 2013)

Legend:
[1] = system: antibodies isolated from the ascites of an ovarian cancer patient; assay: Competition of ascites antibody binding to immobilized GST fusion protein; design: species or system human
Procedure: Inhibition studies were performed in a similar manner as the binding assays described above with the exception that either GST fusion protein or synthetic peptide corresponding to the phage clone were added to the experiment. Where the peptide is mediating the interaction with the immunoglobulins then an inhibition of phage binding should be observed in a dose dependent manner versus the synthetic peptide. GST alone and a control peptide containing unrelated amino acids were tested at identical concentrations.
Peptide sequences of interest were expressed as GST fusion proteins (described above) and used to screen banked ascites and serum to determine the role of the humoral response against these markers. The purified GST-fusion proteins were used to coat a 96-well plate at 100 ng/well at room temperature (RT) or at 4° C. overnight. Following coating, the wells were emptied, rinsed, and non-specific sites were blocked with 200 μl 3% BSA/PBS at RT for 1-2 hours. Cancer patient ascites and/or sera were applied to each coated and blocked well at 1:100 dilution and then incubated at RT for 1 hour. […] Signals were detected in the presence of p-nitrophenyl phosphate by measuring OD405 at specific intervals to follow the course of color development. […]

[2] = system: IgGs isolated from the ascites of ovarian cancer patients; assay: Biopanning of CX7C phage library on IgGs from ovarian cancer ascites; assay type: binding, human
Procedure: To identify peptide epitopes specific for the anti-tumor immune response in ovarian cancer, a two-step screening procedure was followed (FIG. 34). The peptide library was initially pre-cleared on IVIg (intravenous immunoglobulins) to remove non-specific peptides. The pre-cleared peptide phage library was then incubated with IgGs isolated from the ascites of ovarian cancer patients. Phage bound to the ovarian cancer IgGs were recovered, amplified, and precipitated for subsequent rounds of biopanning. Following enrichment of a phage population that bound to ovarian cancer patient IgGs, individual phage clones were picked for sequence analysis to evaluate enrichment of the most consistently binding peptide sequences. Phage display biopanning was performed as described above.
Once the selection rounds were completed as determined by enrichment of phage capable of binding cancer patient IgGs over control at least 3 fold, sequencing and evaluation of the DNA phage insert were undertaken. To sequence the FUSE5 ssDNA directly, phage ssDNA was prepared using the StrataClean™ resin (Stratagene). StrataClean bead slurry was placed in a microcentrifuge tube containing phage. The mixture was vortexed strongly for 30 seconds and then incubated at room temperature for one minute. The tubes were centrifuged at 2,000×g for 1 minute. […]

[3] = system: DU145 xenografts; assay: Phage localization by anti-phage staining of tissues; assay type: in vivo, nude mice; details: 24 hour circulation
Procedure: To determine the specificity of the prostate tumor targeting peptides, 10^9 phage carrying the targeting peptide sequences […] (SEQ ID NO:83) and […] (SEQ ID NO:84) were injected into nude mice bearing DU145 xenografts. After 24 hour circulation, tissue samples were obtained from tumor and control organs (kidney, brain, lung and spleen). Tissue samples were washed immediately in DMAM and fixed in 10% formalin for 48 hours at room temperature. Thin sections were stained for phage using anti-phage antibody (1:500 dilution) and detected using the DAKO LSAB+ system. […] This may be due to the tendency of spleen tissue to trap phage and other foreign particles in general as part of the reticuloendothelial system.

[4] = system: MDA-MB-435 breast carcinoma; assay: Phage localization, separate study; details: in vivo
[5] = system: DU145 tumors; assay: Competition of phage tumor localization by synthetic peptide; assay type: in vivo, nude mice; details: 300 μg synthetic peptide co-injected with phage
Procedure: Competition studies with the […] (SEQ ID NO:83) peptide were performed to determine whether it could inhibit localization of phage bearing the same targeting sequence to DU145 tumors. Nude mice bearing the prostate tumor xenograft were simultaneously injected with 300 μg of synthetic […] (SEQ ID NO:83) peptide and 10^9 phage bearing the same targeting peptide sequence. A control tumor-bearing mouse was co-injected with fd insertless phage plus synthetic peptide. After 24 hours of circulation, tumor tissue samples were removed, washed, fixed, sectioned and stained as disclosed above. Co-administration of synthetic peptide with the same targeting sequence inhibited the ability of […] (SEQ ID NO:83)-phage to localize to prostate carcinoma tissue (not shown). No staining of prostate carcinoma with control fd-tet phage was observed (not shown)

[6] = target: T1, HSP90α (Homo sapiens, UniProt P07900); assay: Receptor purification on biotinylated peptide beads; assay type: binding; details: MALDI analysis of excised bands
T1 construct: from tissue; host or cells: homogenate pellet of DU145 xenograft tumor grown in nude mice
Procedure: The prostate homing receptor for the B2 clone ([…] SEQ ID NO:83) was identified. Nude mice bearing DU145 xenografts were prepared and tissue samples from tumor, kidney and liver were removed. The tissue samples were immediately washed with PBS and three parts of homogenization buffer (PBS, 250 mM sucrose, 1 mM EDTA, protease inhibitors) was added to one part of tissue sample (about 4 ml). The tissue with homogenized with an electric grinder, then further homogenized with a dounce homogenizer. After sonication for 1 min on ice, the homogenate was centrifuged at 8000×g for 5 min. The supernatant was removed and the pellet was analyzed for receptor content.
The […] (SEQ ID NO:83) peptide was biotinylated and coupled to NeutrAvidin beads (Molecular Probes, Eugene, Oreg.) using standard methods. About 500 μg of biotinylated peptide was incubated with 1 ml of NeutrAvidin beads in binding buffer (0.5 M NaCl in PBS) overnight at 4° C. in a 2 ml column. The column was agitated using a rotator. Uncoupled peptides were removed and the beads washed three times with binding buffer and protease inhibitors. […]
The beads were washed four times with wash buffer (0.1% Triton X-100 in PBS with protease inhibitors) and the bound material eluted with 8 M guanidine HCl. Eluted proteins were analyzed on a 4-20% SDS-PAGE denaturing gel. […]

**Q.** CVPELGHEC was tested. Which “inhibition of antibody binding to immobilized GST-CVPELGHEC” value [1] did it give?
**A.** competitively inhibited in a dose-dependent fashion

**Q.** And the “share of the phage clones sequenced” value [2]?
**A.** 86%

**Q.** With “YRCTLNSPFFWEDMTHECHA [listing 1 of 2 here]” as the sequence, how does the “anti-phage staining of control kidney, brain or lung” value [3] read?
**A.** No staining was observed

**Q.** And the “anti-phage staining of normal spleen” value [3]?
**A.** low level of anti-phage staining

**Q.** What about the “anti-phage staining of tumor” value [3] of the same sequence?
**A.** very heavy staining

**Q.** And the phage localization [4]?
**A.** no apparent localization

**Q.** For “YRCTLNSPFFWEDMTHECHA [listing 2 of 2 here]”, which “inhibition of phage localization to prostate carcinoma” value [5] is on record?
**A.** inhibited

**Q.** And the receptor identified [6]?
**A.** HSP90α
